We go through four molecules from ChEMBL document CHEMBL2074110, “Characterization, cDNA cloning, and functional expression of mouse ileal sodium-dependent bile acid transporter” (J Biochem, 1999).

What all share (assay type): functional, cell-based
What all share (conditions): ileocyte

The target in data set [1] is T1, Ileal sodium/bile acid cotransporter (Mus musculus, UniProt P70172).
T1 sequence (P70172 whole entry): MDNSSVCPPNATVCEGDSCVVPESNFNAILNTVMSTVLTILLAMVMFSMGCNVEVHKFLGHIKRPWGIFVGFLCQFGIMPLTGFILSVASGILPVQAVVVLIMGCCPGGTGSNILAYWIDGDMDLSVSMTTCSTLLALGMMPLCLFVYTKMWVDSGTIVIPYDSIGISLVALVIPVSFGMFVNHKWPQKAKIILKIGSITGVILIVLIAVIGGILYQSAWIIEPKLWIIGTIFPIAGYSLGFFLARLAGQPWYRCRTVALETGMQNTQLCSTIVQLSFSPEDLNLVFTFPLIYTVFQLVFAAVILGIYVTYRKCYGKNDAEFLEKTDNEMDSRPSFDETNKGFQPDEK
Description: TP_TRANSPORTER: inhibition of Taurocholate uptake (Taurocholate: 0.72 uM, CDCA: a 100-fold excess) in isolated mouse ileocytes.

Data set [2] deals with T1, Ileal sodium/bile acid cotransporter. Description: TP_TRANSPORTER: inhibition of Taurocholate uptake (Taurocholate: 0.72 uM, Deoxycholate: a 100-fold excess) in isolated mouse ileocytes.
The target is the same in data set [3]. Briefly: TP_TRANSPORTER: inhibition of Taurocholate uptake (Taurocholate: 0.72 uM, GC: a 100-fold excess) in isolated mouse ileocytes.
For data set [4] the target is unchanged. Description: TP_TRANSPORTER: inhibition of Taurocholate uptake (Taurocholate: 0.72 uM, Lithocholate: a 100-fold excess) in isolated mouse ileocytes.

With `C[C@H](CCC(=O)O)[C@H]1CC[C@H]2[C@@H]3[C@H](O)C[C@@H]4C[C@H](O)CC[C@]4(C)[C@H]3CC[C@]12C` [CHENODIOL], the Activity result in data set [1] was “inhibitor [+]”.

Consider `C[C@H](CCC(=O)O)[C@H]1CC[C@H]2[C@@H]3CC[C@@H]4C[C@H](O)CC[C@]4(C)[C@H]3C[C@H](O)[C@]12C` [DEOXYCHOLIC ACID], for which the Activity entry in data set [2] is “inhibitor [+]”.

For `C[C@H](CCC(=O)NCC(=O)O)[C@H]1CC[C@H]2[C@@H]3[C@H](O)C[C@@H]4C[C@H](O)CC[C@]4(C)[C@H]3C[C@H](O)[C@]12C` [GLYCOCHOLIC ACID], in data set [3], the Activity result was “inhibitor [+]”.

For the molecule `C[C@H](CCC(=O)O)[C@H]1CC[C@H]2[C@@H]3CC[C@@H]4C[C@H](O)CC[C@]4(C)[C@H]3CC[C@]12C` [LITHOCHOLIC ACID], in data set [4], the Activity result is “inhibitor [+]”.
